Patent US20100310542A1, “Pharmaceutical Compositions for treating wouds and related methods” (HEALOR LTD., priority 2007, published 2010)
* marks the point of attachment. Myristoyl = CCCCCCCCCCCCCC(=O)*

Legend:
keratin 1 = keratin 1 expression by Western blot in keratinocytes; assay type: cell-based, mice; conditions: visfatin 0.0001 μg/ml or L-alpha 100 ng/ml, 24 hours after calcium-induced differentiation
From the text: Medium A and B are both EMEM eagle's minimal essential medium from Biological Industries (Israel) containing 8% CHELEX™ treated fetal bovine serum. CHELEX™ is a strong chelator which binds free Ca^2+ and Mg^2+ ions to prevent these ions from being bioavailable to the cultured cells.
Primary skin keratinocytes isolated from the tails of adult mice (7-10 months up to 2 years) were maintained in medium A (MEM) as described above. After 5 days in (medium A), the growth medium in half of the cultured plates was replaced with medium B (as described above)
Next visfatin or L-alpha were each individually added to cells cultured in medium A (FIG. 19A) and cells cultured in medium B (FIG. 19B) as indicated in FIG. 19. The final concentration in the culture medium of visfatin was 0.0001 μg/ml visfatin. The final concentration in the culture medium of L-alpha was 100 ng/ml.
Cell differentiation was induced by elevating calcium from 0.05 mM to 0.12 mM as described above. Twenty-four (24) hours after differentiation cells were harvested and Western Blot analysis was performed. […] Keratin 1 expression was then quantified using standard densitometric methods […]
Cell differentiation was then induced by elevating calcium levels in the culture medium from 0.05 mM to 0.12 mM. […] Expression was assessed using standard Western blotting and densitometry techniques.

[1] = system: full thickness skin incisions; assay: incision wound healing in mice, percent of healed wounds; assay type: in vivo, C57BL/6J mice; conditions: agent alone, all formulations (A-C); daily, 7 days; vs groups treated with formulations alone; listed as pseudosubstrate peptide
Description: In vivo incision wound generation and inducement of inflammation: Full thickness (20 mm long) skin incisions were performed on the upper back of anesthetized C57BL/6J mice (6 mice per group). […] the incision, wounds were treated daily with insulin (10^−6 M; 0.1 units/ml); pseudosubstrate PKCα peptide, 1 μM (PKCα inhibitor); or Insulin+PKCα inhibitor (Myr-pseudosubstrate PKCα peptide, 1 μM and insulin 0.1 units) applied directly on the wounds in the various formulations (Formulations A-C) as described above. After 7 days, wounds were excised and the percentage of healed wounds was evaluated by examining the morphology and histology of the wounds. Results are presented as percent of healed wounds relative to the total number of wounds per group. […] Full thickness (20 mm long) skin incisions were performed on the upper back of anesthetized C57BL/6J mice (6 mice per group). […] After 7 days, wounds were excised and the percentage of healed wounds was evaluated by examining the morphology and histology of the wounds. […]

[2] = system: full thickness skin incisions; assay: severe inflammatory burden at incision wounds in mice; assay type: in vivo, C57BL/6J mice; conditions: peptide 1 μM daily, 7 days
Description: Full thickness (20 mm long) skin incisions were performed on the upper back of anesthetized C57BL/6J mice (6 mice per group). Following incisions, wounds were treated daily with Myr-pseudosubstrate PKCα peptide, 1 μM applied directly on the wounds in the various formulations (Formulation A-C) described above.
(§1) After 7 days, wounds were excised and subjected to histology and immunohistochemistry. Inflammatory burden was considered severe when at least 2 of the 3 following parameters were present at the wound gap: (1) Abscess formation at the wounded area, (2) excessive leukocytosis (>100 cells in a fixed field×200), (3) high WBC/RBC ratio in blood vessels where >20% of WBC content within the blood vessels is shown in a fixed field (×200). Results are summarized and presented as percent of wounds with severe inflammation relative to the number of wounds in the group.
as §1, with “Full thickness (20 mm long) skin incisions were performed on the upper back of anesthetized C57BL/6J mice (6 mice per group). Following incision, wounds were treated daily with PKCα inhibitor (Pseudosubstrate PKCα peptide, 1 μM) applied directly to the wounds in the various formulations (Formulation A-C) described above. After” for “After”, “per total” for “relative to the number of”

PKCα = PKCα activity assay in keratinocytes overexpressing PKCα; assay type: cell-based, murine; conditions: Formulation A; peptide 1 μM for 15 minutes; PKCα overexpressing cells; relative to controls
Description: Transduction of keratinocytes with PKC isoform genes: The culture medium was aspirated and keratinocyte cultures were infected with PKC recombinant adenoviruses encoding specific PKC isoforms such as PKCα for one hour. The cultures were then washed twice with MEM and re-fed. Ten hours post-infection cells were transferred to serum-free low Ca^2+-containing MEM for 24 hours.
PKC activity: Specific PKC activity was determined in freshly prepared immunoprecipitates from keratinocyte cultures following appropriate treatments. These lysates were prepared in RIPA buffer without NaF. Activity was measured using the SignaTECT Protein Kinase C Assay System (Promega, Madison, Wis., USA) according to the manufacturer's instructions. PKCα pseudosubstrate was used as the substrate in these studies.
PKC immunokinase assay: Purified and standardized PKC isozymes were kindly supplied by Dr. P. Blumberg (NCl, NIH, U.S.) and Dr. Marcello G. Kazanietz (University of Pennsylvania, School of Medicine). Primary keratinocytes were harvested in 500 μl […] (1% Triton-X 100, 10 μg/ml aprotinin and leupeptin, 2 μg/ml pepstatin, 1 mM PMSF, 1 mM EDTA, 200 μM […], 10 mM NaF in 1×PBS). Lysates were incubated at 4° C. for 30 minutes, and spun at 16,000×g for 30 minutes at 4° C. Supernatants were transferred to a fresh tube. […]

Molecule	expression of keratin 1 (keratin 1; medium A (no KCl))	expression of keratin 1 (keratin 1; medium B (KCl 0.4 mg/ml))	healing of wounds (percent of healed wounds) [1]	severe inflammation (percent of wounds with severe inflammation) ([2]; Formulation A)	severe inflammation (percent of wounds with severe inflammation) ([2]; Formulation B)	severe inflammation (percent of wounds with severe inflammation) ([2]; Formulation C)	inhibition of PKCα activity (PKCα)
CCCCCCCCCCCCCCCC(=O)OC[C@H](COP(=O)(O)OC1C(O)C(OP(=O)(O)O)C(OP(=O)(O)O)C(OP(=O)(O)O)C1O)OC(=O)CCCCCCCCCCCCCCC.N.N.N.N.N.N.N (stereo partly drawn) [L-alpha, L-α-Phosphatidylinositol-3,4,5-trisphosphate, Dipalmitoyl-, Heptaammonium Salt]	decreased relative to the control sample	not significantly altered	–	–	–	–	–
Myr*-Phe-Ala-Arg-Lys-Gly-Ala-Leu-Arg-Gln-OH (Myristoyl-FARKGALRQ-OH; SMILES CCCCCCCCCCCCCC(=O)N[C@@H](Cc1ccccc1)C(=O)N[C@@H](C)C(=O)N[C@@H](CCCNC(=N)N)C(=O)N[C@@H](CCCCN)C(=O)NCC(=O)N[C@@H](C)C(=O)N[C@@H](CC(C)C)C(=O)N[C@@H](CCCNC(=N)N)C(=O)N[C@@H](CCC(N)=O)C(=O)O) [PKCα inhibitor, myristoylated peptide corresponding to the pseudosubstrate region of PKCα, CAS 147217-25-2]	–	–	did not promote wound healing efficacy	significant reduction in severe inflammation	No reduction in inflammatory burden	No reduction in inflammatory burden	able to significantly inhibit PKCα activity
